According to patent US9957271B2, “Substituted bicyclic aza-heterocycles and analogues as sirtuin modulators” (GlaxoSmithKline, LLC, priority 2012, dated 2018):
Like-named read-outs stand apart in the source and are kept apart here.

Molecular target: T1, SIRT1 (Homo sapiens, UniProt Q96EB6)
T1 sequence (Q96EB6 1-747): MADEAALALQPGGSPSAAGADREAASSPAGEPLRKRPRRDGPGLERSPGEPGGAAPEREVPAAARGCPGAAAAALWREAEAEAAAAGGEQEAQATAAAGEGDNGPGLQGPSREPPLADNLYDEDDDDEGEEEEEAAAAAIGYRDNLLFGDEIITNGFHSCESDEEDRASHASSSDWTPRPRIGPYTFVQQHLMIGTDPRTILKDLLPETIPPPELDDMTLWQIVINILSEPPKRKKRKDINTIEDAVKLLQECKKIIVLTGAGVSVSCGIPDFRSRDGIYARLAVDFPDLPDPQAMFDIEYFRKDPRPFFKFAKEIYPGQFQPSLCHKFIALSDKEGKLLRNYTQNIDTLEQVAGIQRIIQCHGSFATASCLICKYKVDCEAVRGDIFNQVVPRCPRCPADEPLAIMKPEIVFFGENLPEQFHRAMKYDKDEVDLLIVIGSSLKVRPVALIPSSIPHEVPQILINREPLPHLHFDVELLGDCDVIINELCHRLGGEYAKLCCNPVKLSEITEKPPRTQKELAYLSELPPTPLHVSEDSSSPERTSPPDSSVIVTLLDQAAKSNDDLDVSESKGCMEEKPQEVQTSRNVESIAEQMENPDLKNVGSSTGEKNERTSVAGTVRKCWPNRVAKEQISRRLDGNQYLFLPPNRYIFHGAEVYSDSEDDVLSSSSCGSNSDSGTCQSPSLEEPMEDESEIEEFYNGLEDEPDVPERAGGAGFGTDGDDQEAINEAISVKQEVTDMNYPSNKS
Assay: Trp mass spectrometry assay of SIRT1 activity
Format: biochemical
Details: for Emax: read-out: Trp % Fold Act; for Trp EC1.5 (μM): concentration giving 150% activation of SIRT1
Text: Mass spectrometry based assays were used to identify modulators of SIRT1 activity. The TAMRA based assay utilized a peptide having 20 amino acid residues as follows: Ac-EE-K(biotin)-[…](Ac)NleSTEG-K(5TMR)-EE-NH2 (SEQ ID NO: 1), wherein K(Ac) is an acetylated lysine residue and Nle is a norleucine. The peptide was labeled with the fluorophore 5TMR (excitation 540 nm/emission 580 nm) at the C-terminus. The sequence of the peptide substrate was based on p53 with several modifications. In addition, the methionine residue naturally present in the sequence was replaced with the norleucine because the methionine may be susceptible to oxidation during synthesis and purification. The Trp based assay utilized a peptide having an amino acid residues as follows: Ac-R-H-K-K(Ac)-W-NH2 (SEQ ID NO: 2).
The Trp mass spectrometry assay was conducted as follows. 0.5 μM peptide substrate and 120 μM βNAD^+ were incubated with 10 nM SIRT1 for 25 minutes at 25° C. in a reaction buffer (50 mM HEPES pH 7.5, […], 1 mM DTT, 0.05% BSA). The SIRT1 protein was obtained by cloning the SirT1 gene into a T7-promoter containing vector, which was then expressed in BL21(DE3) bacterial cells and purified as described in further detail below. Test compound was added at varying concentrations to this reaction mixture and the resulting reactions were monitored. After the 25 minute incubation with SIRT1, 10 μL of 10% formic acid was added to stop the reaction. The resulting reactions were sealed and frozen for later mass spec analysis. The relative SIRT1 activity was then determined by measuring the amount of O-acetyl-ADP-ribose (OAADPR) formed (or, alternatively, the amount of deacetylated Trp peptide generated) by the NAD-dependent sirtuin deacetylation reaction in the presence of varying concentrations of the test compound versus control reactions lacking the test compound. The degree to which the test agent activated deacetylation by SIRT1 was expressed as EC1.5 (i.e., the concentration of compound required to increase SIRT1 activity by 50% over the control lacking test compound), and Percent Maximum Activation (i.e., the maximum activity relative to control (100%) obtained for the test compound).
A control for inhibition of sirtuin activity was conducted by adding 1 μL of 500 mM nicotinamide as a negative control at the start of the reaction (e.g., permits determination of maximum sirtuin inhibition). A control for activation of sirtuin activity was conducted using 10 nM of sirtuin protein, with 1 μL of DMSO in place of compound, to determine the amount of deacetylation of the substrate at a given time point within the linear range of the assay. This time point was the same as that used for test compounds and, within the linear range, the endpoint represents a change in velocity.
For the above assay, SIRT1 protein was expressed and purified as follows. The SirT1 gene was cloned into a T7-promoter containing vector and transformed into BL21(DE3). The protein was expressed by induction with 1 mM IPTG as an N-terminal His-tag fusion protein at 18° C. overnight and harvested at 30,000×g. Cells were lysed with lysozyme in lysis buffer (50 mM Tris-HCl, 2 mM Tris[2-carboxyethyl]phosphine (TCEP), 10 μM ZnCl2, 200 mM NaCl) and further treated with sonication for […] for complete lysis. The protein was purified over a Ni-NTA column (Amersham) and fractions containing pure protein were pooled, concentrated and run over a sizing column (Sephadex S200 26/60 global). The peak containing soluble protein was collected and run on an Ion-exchange column (MonoQ). Gradient elution (200 mM-500 mM NaCl) yielded pure protein. This protein was concentrated and dialyzed against dialysis buffer (20 mM Tris-HCl, 2 mM TCEP) overnight. The protein was aliquoted and frozen at −80° C. until further use.

[1] = percent maximum fold activation of SIRT1, Trp peptide substrate
[2] = Trp assay, percent maximum fold activation

Structure (SMILES) | Emax [1] | Emax [2] | Trp EC1.5 (μM) (Trp assay)
O=C(Nc1cccc(-c2cnco2)n1)c1cnn2ccc(N3CCC[C@@H]3C(F)(F)F)nc12 [Compound 1081] | ≥ 350% | – | –
Cc1nn2ccc(N3CCC[C@@H]3C(F)(F)F)nc2c1C(=O)Nc1cccnn1 [Compound 1075] | ≥ 350% | – | –
O=C(Nc1ccccn1)c1cnn2ccc(N3CCCC3C(F)(F)F)nc12 (stereo not drawn) [Compound 999] | – | ≥ 350% | –
O=C(Nc1ccncn1)c1cnc2ccc(N3CC[C@H](F)C3)nn12 [Compound 851] | – | < 350% | B (EC1.5 1-25 μM)
O=C(Nc1ccncn1)c1cnc2ccc(N3CCCC3)nn12 [Compound 894] | – | < 350% | B (EC1.5 1-25 μM)
O=C(Nc1ccncn1)c1cnc2ccc(N3CCOCC3)nn12 [Compound 961] | – | < 350% | –
O=C(Nc1ccncc1F)c1cnc2ccc(N3CCC(F)(F)C3)nn12 [Compound 903] | – | < 350% | C (EC1.5>25 μM)
O=C(Nc1cnccn1)c1cnn2ccc(N3CCC[C@H]3C(F)(F)F)nc12 [Compound 1031] | ≥ 350% | – | –
Cc1cncc(NC(=O)c2cnc3ccc(N4CC[C@H](F)C4)nn23)c1 [Compound 889] | – | < 350% | B (EC1.5 1-25 μM)
O=C(Nc1cccnc1)c1cnc2ccc(N3CCC(F)(F)CC3)nn12 [Compound 928] | – | < 350% | B (EC1.5 1-25 μM)
Cc1nc2c(OC[C@H](O)CO)cc(-c3ccccc3C(F)(F)F)nn2c1C(=O)Nc1ccncc1F [Compound 843] | – | ≥ 350% | A (EC1.5<1 μM)
CN1CCN(c2ccc3ncc(C(=O)Nc4cccnn4)n3n2)CC1 [Compound 950] | – | < 350% | –
CO[C@H]1CCN(c2ccc3ncc(C(=O)Nc4ccncn4)n3n2)C1 [Compound 973, (S)-6-(3-methoxypyrrolidin-1-yl)-N-(pyrimidin-4-yl)imidazo[1,2-b]pyridazine-3-carboxamide] | – | < 350% | –
Cc1cncc(NC(=O)c2c(C)nn3ccc(N4CCC[C@@H]4C(F)(F)F)nc23)c1 [Compound 1072] | ≥ 350% | – | –
Cc1cncc(NC(=O)c2cnc3ccc(N4CCC[C@@H]4C)nn23)c1 [Compound 1058] | < 350% | – | –
CN(C)[C@H]1CCN(c2ccc3ncc(C(=O)Nc4cnccn4)n3n2)C1 [Compound 873] | – | ≥ 350% | B (EC1.5 1-25 μM)
O=C(Nc1ccc(F)cn1)c1cnc2ccc(N3CC[C@H](O)C3)nn12 [Compound 983] | – | < 350% | –
Cc1nn2ccc(N3CCC[C@@H]3C(F)(F)F)nc2c1C(=O)Nc1cccc(-c2cnco2)n1 [Compound 1086] | ≥ 350% | – | –
O=C(Nc1ccc(F)cn1)c1cnc2ccc(N3CCC(F)(F)CC3)nn12 [Compound 962] | – | < 350% | –
Cc1nn2ccc(N3CCC[C@@H]3C(F)(F)F)nc2c1C(=O)Nc1cnccn1 [Compound 1084] | ≥ 350% | – | –
O=C(Nc1cccnn1)c1cnn2ccc(N3CCCCC3C(F)(F)F)nc12 (stereo not drawn) [Compound 1021] | ≥ 350% | – | –
Cc1cc(C)nc(NC(=O)c2c(C)nc3c(OC[C@H](O)CO)cc(-c4ccccc4C(F)(F)F)nn23)c1 [Compound 834] | – | ≥ 350% | A (EC1.5<1 μM)
CC1CCCN1c1ccn2ncc(C(=O)Nc3ccccn3)c2n1 (stereo not drawn) [Compound 1037] | ≥ 350% | – | –
Cc1nc2c(OC[C@H](O)CO)cc(-c3ccccc3C(F)(F)F)nn2c1C(=O)Nc1ccncc1 [Compound 863] | – | ≥ 350% | A (EC1.5<1 μM)

Structure (SMILES) | Emax [1] | Emax [2] | Trp EC1.5 (μM) (Trp assay)
CO[C@H]1CCN(c2ccc3ncc(C(=O)Nc4ccncc4F)n3n2)C1 [Compound 936] | – | < 350% | B (EC1.5 1-25 μM)
O=C(Nc1cccnc1)c1cnc2ccc(N3CCC[C@@H]3C(F)(F)F)nn12 [Compound 1019] | ≥ 350% | – | –
C[C@H]1CCCN1c1ccc2ncc(C(=O)Nc3cccnc3)n2n1 [Compound 1056] | < 350% | – | –
COc1nccc(NC(=O)c2cnc3ccc(N4CCC[C@@H]4C)nn23)n1 [Compound 1051] | < 350% | – | –
CC1CCCN1c1ccn2ncc(C(=O)Nc3ccncn3)c2n1 (stereo not drawn) [Compound 1042] | < 350% | – | –
O=C(Nc1cccnc1)c1cnn2ccc(N3CCCC(C(F)(F)F)C3)nc12 (stereo not drawn) [Compound 1007] | ≥ 350% | – | –
O=C(Nc1cccc2c1COB2O)c1cnc2ccc(N3CCCC3C(F)(F)F)nn12 (stereo not drawn) [Compound 1097] | ≥ 350% | – | –
Cc1nc2ccc(N3CCCC3C(F)(F)F)nn2c1C(=O)Nc1cccnn1 (stereo not drawn) [Compound 1006] | ≥ 350% | – | –
C[C@@H]1CN(c2ccc3ncc(C(=O)Nc4cccnc4)n3n2)C[C@H](C)O1 [Compound 995] | – | ≥ 350% | –
O=C(Nc1cccnc1)c1cnc2ccc(N3CCC(C(F)(F)F)C3)nn12 (stereo not drawn) [Compound 958] | – | ≥ 350% | –
O=C(Nc1ccc(F)cn1)c1cnc2ccc(N3CCC(F)(F)C3)nn12 [Compound 907] | – | < 350% | B (EC1.5 1-25 μM)
Cc1nn2ccc(N3CCC[C@@H]3C(F)(F)F)nc2c1C(=O)Nc1ccccn1 [Compound 1070] | ≥ 350% | – | –
O=C(Nc1cnc2ccc(-c3ccccc3OC(F)(F)F)nn12)c1cnccn1 [Compound 314] | – | < 350% | B (EC1.5 1-25 μM)
C[C@@H]1CN(c2ccc3ncc(C(=O)Nc4cccnn4)n3n2)CCO1 [Compound 1003] | ≥ 350% | – | –
Cc1nc2ccc(N3CCC[C@H]3C(F)(F)F)nn2c1C(=O)Nc1cccnc1 [Compound 1016] | ≥ 350% | – | –
O=C(Nc1ccccn1)c1cnc2ccc(N3CCCC3C(F)(F)F)nn12 (stereo not drawn) [Compound 974] | – | ≥ 350% | –
C[C@H]1CCCN1c1ccc2ncc(C(=O)Nc3cncc(F)c3)n2n1 [Compound 1059] | < 350% | – | –
O=C(Nc1ccccn1)c1cnc2ccc(N3CCC(F)(F)C3)nn12 [Compound 909] | – | ≥ 350% | B (EC1.5 1-25 μM)
CN(C)[C@H]1CCN(c2ccc3ncc(C(=O)Nc4ccc(F)cn4)n3n2)C1 [Compound 874] | – | < 350% | A (EC1.5<1 μM)
CC1CCN(c2ccc3ncc(C(=O)Nc4cccnc4)n3n2)C1 (stereo not drawn) [Compound 976] | – | ≥ 350% | –
Cc1nc2c(OC[C@H](O)CO)cc(-c3ccccc3C(F)(F)F)nn2c1C(=O)Nc1ccccn1 [Compound 842] | – | ≥ 350% | A (EC1.5<1 μM)
O=C(Nc1cccnc1)c1cnc2ccc(N3CCC(F)(F)C3)nn12 [Compound 908] | – | < 350% | B (EC1.5 1-25 μM)
C[C@H]1CCCN1c1ccc2ncc(C(=O)Nc3ccc(F)cn3)n2n1 [Compound 1052] | < 350% | – | –
